Some test systems named below: Campylobacter jejuni; Staphylococcus aureus; Pseudomonas aeruginosa; Shigella flexneri; Salmonella typhimurium; Streptococcus pyogenes; Escherichia coli; Shigella sonnei; Fusarium oxysporum; Candida sp.
What all share (experiment): ≥ marks a high value that may be exact or a test limit, other limits are often not marked, values filed in µg/mL are converted to µM
Test [1] concerns Staphylococcus aureus ATCC 25923.
The test system of test [2] is Escherichia coli ATCC 25726.
Test [3] has as its system Candida albicans ATCC 90028.
Test [4] has as its system Acinetobacter baumannii I NM8.
Test [5] relates to Klebsiella pneumoniae ATCC 700603.
For test [6], the system named is Streptococcus pyogenes ATCC 10389.
The test system of test [7] is Shigella flexneri ATCC 25875.
For test [8], the system named is Saccharomyces cerevisiae ATCC 24860.
Test [9] relates to Helicobacter pylori ATCC 43526.
Test [10] concerns Aspergillus flavus ATCC 46283.
Test [11] has as its system Aspergillus niger ATCC 20611.
In test [12] the test system is Escherichia coli ATCC 15224.
Test [13] relates to Trichoderma viride ATCC 36316.
The subject of test [14] is Candida albicans ATCC 32354.
In test [15] the test system is Aspergillus fumigatus ATCC 16424.
Test [16] has as its system Staphylococcus aureus ATCC 29213.
Test [17] deals with Shigella sonnei ATCC 25931.
Test [18] relates to Pseudomonas aeruginosa ATCC 90271.
In test [19] the test system is Salmonella enterica subsp. enterica serovar Typhimurium ATCC 13311.
In test [20] the test system is Campylobacter jejuni ATCC 43051.
Test [21] deals with Escherichia coli 363 ATCC 11775.
In test [22] the test system is Salmonella enterica subsp. enterica serovar Newport.
In test [23] the test system is Bacillus megaterium ATCC 17749.
Test [24] has as its system Staphylococcus epidermidis ATCC 12228.
Test [25] has as its system Micrococcus luteus ATCC 4698.
The test system of test [26] is Vibrio metschnikovii NCTC 8483.
Test [27] deals with Vibrio alginolyticus ATCC 17749.
Test [28] concerns Staphylococcus aureus ATCC 25293.

Values after ≈ are worked out from the molar mass of the structure shown. Values joined by “and” are separate entries in the source; they are usually repeats but may differ in a detail not shown here. Identical values can stand only once. Some results are limits rather than exact numbers.

For the molecule `CC[C@H](C)[C@H](NC(=O)[C@@H](NC(=O)[C@H](CO)NC(=O)[C@H](C)NC(=O)[C@H](CC(C)C)NC(=O)CN)[C@@H](C)O)C(=O)NCC(=O)N[C@@H](CO)C(=O)N[C@@H](CC(C)C)C(=O)N[C@@H](CC(C)C)C(=O)NCC(=O)N[C@@H](CCCCN)C(=O)N[C@@H](Cc1ccccc1)C(=O)N[C@@H](C)C(=O)N[C@@H](CCCCN)C(=O)NCC(=O)NCC(=O)N[C@@H](C)C(=O)N[C@@H](CCC(N)=O)C(=O)N[C@@H](C)C(=O)N[C@@H](Cc1ccccc1)C(=O)N[C@@H](CC(C)C)C(=O)N[C@@H](CCC(N)=O)C(=O)N1CCC[C@H]1C(=O)N[C@@H](CCCCN)C(=O)O` [GLASTIGSLLGKFAKGGAQAFLQPK], the MIC was 80 µM and 100 µM in test [1]; no less than 160 µM in [2]; no less than 50 µM in test [3]; 25 µM (≈ 61.5 µg/mL) in [4]; greater than 50 µM in test [5].
Consider `CC[C@H](C)[C@H](NC(=O)CNC(=O)[C@H](CCC(N)=O)NC(=O)CNC(=O)[C@@H](NC(=O)[C@H](CCCCN)NC(=O)[C@H](CCC(=O)O)NC(=O)[C@@H](NC(=O)[C@H](CCCCN)NC(=O)[C@H](CCCCN)NC(=O)[C@H](Cc1ccccc1)NC(=O)[C@H](CC(C)C)NC(=O)[C@H](CCCCN)NC(=O)[C@H](Cc1c[nH]c2ccccc12)NC(=O)[C@@H](N)CCCCN)[C@@H](C)CC)C(C)C)C(=O)NCC(=O)N[C@@H](C)C(=O)N[C@H](C(=O)N[C@@H](CC(C)C)C(=O)N[C@@H](CCCCN)C(=O)N[C@H](C(=O)N[C@@H](CC(C)C)C(=O)N[C@H](C(=O)N[C@H](C(=O)NCC(=O)N[C@@H](CC(C)C)C(N)=O)[C@@H](C)O)[C@@H](C)O)C(C)C)C(C)C` [KWKLFKKIEKVGQGIGAVLKVLTTGL], for which the minimum inhibitory concentration (MIC) in test [6] was determined as 2.63 µM (≈ 7.5 µg/mL); in [7], 1.47 µM (≈ 4.2 µg/mL); in test [8], 4.97 µM (≈ 14.2 µg/mL); in [9], 1.61 µM (≈ 4.6 µg/mL); in [10], 3.71 µM (≈ 10.6 µg/mL); in test [11], 3.15 µM (≈ 9 µg/mL). The minimal inhibitory concentration (MIC) came to 1.3 µM (≈ 3.7 µg/mL) in test [12]; 1.54 µM (≈ 4.4 µg/mL) against Campylobacter jejuni; 4.62 µM (≈ 13.2 µg/mL) in [13]; 3.96 µM (≈ 11.3 µg/mL) in test [14]; 3.68 µM (≈ 10.5 µg/mL) in test [15]; 3.01 µM (≈ 8.6 µg/mL) in the test on Staphylococcus aureus. Also, the MIC in [16] was found to be 2.56 µM (≈ 7.3 µg/mL); in test [17], 1.58 µM (≈ 4.5 µg/mL); in the test on Pseudomonas aeruginosa, 1.33 µM (≈ 3.8 µg/mL); against Shigella flexneri, 1.65 µM (≈ 4.7 µg/mL); in test [18], 1.54 µM (≈ 4.4 µg/mL); in the test with Salmonella typhimurium, 1.54 µM (≈ 4.4 µg/mL). In addition, the minimal inhibitory concentration (MIC) with Streptococcus pyogenes amounted to 2.7 µM (≈ 7.7 µg/mL); with Escherichia coli it was 1.26 µM (≈ 3.6 µg/mL); with Shigella sonnei it was 1.65 µM (≈ 4.7 µg/mL); in test [19], 1.72 µM (≈ 4.9 µg/mL); in test [20], 1.4 µM (≈ 4 µg/mL).
With `CC(C)C[C@@H]1NC(=O)[C@H](CCCN=C(N)N)NC(=O)[C@H](Cc2cnc[nH]2)NC(=O)[C@H](Cc2c[nH]c3ccccc23)NC(=O)CNC(=O)CNC(=O)[C@@H](NC(=O)[C@H](Cc2ccc(O)cc2)NC(=O)CNC(=O)CNC(=O)[C@@H](N)CO)CSSC[C@@H](C(=O)N[C@H](C(=O)N[C@@H](CO)C(=O)N[C@@H](Cc2ccc(O)cc2)C(=O)N[C@@H](CCCN=C(N)N)C(=O)N[C@@H](CO)C(=O)NCC(=O)O)[C@@H](C)O)NC(=O)[C@H](CCCN=C(N)N)NC1=O` [SGGYCGGWHRLRCTSYRSG], the MIC in [21] was no less than 62 µM; in [22] it was no less than 75 µM; in test [23] it was no less than 34 µM; in test [24], 41 µM (≈ 86.2 µg/mL); in [25], 16 µM (≈ 33.6 µg/mL); in test [26], no less than 75 µM. The minimum inhibitory concentration (MIC) is no less than 75 µM in test [27], 13 µM (≈ 27.3 µg/mL) against Fusarium oxysporum, 8 µM (≈ 16.8 µg/mL) in the test with Candida sp. and 17 µM (≈ 35.7 µg/mL) in test [28].

The term MIC denotes the smallest concentration in the dilution series that meets the test's criterion for growth inhibition.

The record behind these values is DBAASP.
